Where two headings read alike, the source gives them in different places. [invdT] = inverted (3'-3') thymidine; {TYE665} = TYE665 fluorescent dye
Tests used:
[1] = tested on: HEY cells; assay: Confocal microscopy internalisation into HEY cells; type: cell-based, human
Protocol: Confocal microscopy was used as a means of visualising aptamer internalisation into the cells. Both aptamers and cells were prepared in the same manner as described above before they were mixed and allowed to incubate at 37° C. The aptamers were used at a concentration of 200 nM and were allowed to incubate for 60 minutes. The concentration for the conjugate (bifunctional) aptamers was 400 nM and these were incubated with the cells for 120 minutes. Ten minutes prior to end of incubation, 2 μL of Hoechst nuclear stain (10 mg/mL) was added to cells. Cells were then washed three times with 100 μL of PBS as described above and resuspended in 20 μL (8×10^5 cells/well) in an 8-chambered slide (Lab-Tek II, Nunc) for visualisation. Cells were incubated in blocking buffer for 60 mins followed by resuspension in binding buffer containing the aptamer and incubated for 60 mins at 37° C. Bisbenzimide Hoechst 33342 (3 mg/ml) (Sigma) was added to the cells during the final 10 min of incubation. The aptamer solution was removed and the cells were washed three times for 5 min each in PBS prior to visualisation using a FluoView FV10i laser scanning confocal microscope (Olympus).
As with the anti-TfR single aptamers, it was necessary to ensure that the binding that had been observed could be attributed to cellular internalisation rather than surface attachment. This was done in a similar manner as before. […]

[2] = mouse, in vivo
[3] = 40 nmol/Kg i.v.
Protocol: NOD/SCID mice received a single i.v. injection of 40 nmol/Kg of transferrin/EpCAM aptamer with four various structures (TEPP: Bi3 transferrin^+/EpCAM^+; TEPN: transferrin^+/EpCAM^−; TENP: transferrin^−/EpCAM^+; TENN: Bi1 transferrin^−/EpCAM^−). The concentration of aptamers, expressed as % of injected dose (ID) per mg of tissue, in tissues indicated was determined at 30 min and 60 min after the agent administration using ELISA. Data are means±SEM (n=3).
To evaluate the advantage of positive transferrin-modified aptamers over their negative transferrin-modified counterparts in brain uptake, the biodistribution of aptamers with four various structures (transferrin+/EpCAM+, transferrin+/EpCAM−, transferrin−/EpCAM+, transferrin−/EpCAM−) were studied at 30 min and 60 min after a single i.v. injection of these agents at a dosage of 40 nmol/Kg into NOD/SCID mice.

Bi1: aptamer conjugate based on TfR1 and scrambled EpCAM binding loop, negative control, SEQ ID NO:8 (GCGCGTGCACGCGCTAACGGATTCCTTTTCCGN; listed as DNA, further chemistry not given here)
Internalisation into EpCAM-positive HEY cell line ([1]; conjugate aptamers, 400 nM, two hour): observed to internalise | Fluorescent signal in dissected brain [2]: no signal

5′-GCGCGGTACCGCGCTAACGGAGGTTGCGTCCGT-3′ (GCGCGGTACCGCGCTAACGGAGGTTGCGTCCGN; listed as DNA, chemistry not given here) [Bi3]
Accumulation in brain, fold higher than transferrin−/EpCAM+ ([3]; 30 min): 3.1 fold | Accumulation in brain, fold higher than transferrin−/EpCAM− ([3]; 30 min): 12.2 fold | Accumulation in brain, fold higher than transferrin−/EpCAM+ ([3]; 60 min): 2.5 fold | Accumulation in brain, fold higher than transferrin−/EpCAM− ([3]; 60 min): 10.8 fold

TfR3: version of TfR1 with scrambled binding loop sequence, SEQ ID NO:6 (DNA GCGTGGTACCACGC; DNA, 5' {TYE665}, 3' [invdT], backbone not given here)
Internalisation of anti-TfR aptamer into HEY cells [1]: not detected
